Patent US20150141617A1, “PRODUCTION AND PURIFICATION OF ACTIVE EUKARYOTIC FORMYLGLYCINEGENERATING ENZYME (FGE) VARIANTS” (Universität Bielefeld, priority 2013, published 2015)
The star is where a group is joined. Decanoyl = CCCCCCCCCC(=O)*; CH2Cl = ClC*

Key:
[1] = test system: PCs (furin or furin-like convertases); assay: Treatment of HT1080 Tet-On cells expressing FGE with RVKR-CMK inhibitor; assay type: cell-based, human; conditions: increasing concentrations of the inhibitor, 16 h
Method: (§1) CHO-FD11 cells stably expressing FGE-His6 or HT1080 cells were grown for 24 h, and cells and medium were harvested. For treatment with furin in vitro cell pellets were resuspended in HEPES pH 7.5 buffer containing 1 mM CaCl2 and 0.5% Triton X-100 and lysed in the absence of protease inhibitors by sonication on ice. Appropriate amounts of cell lysate and medium were incubated for 3 h at 25° C. with 4 units of furin (NEB) with or without 25 μM decanoyl-RVKR-CMK (Alexis biochemicals) as indicated in the figures. For in vivo treatment, HT1080 Tet-On cells were transiently transfected with pBI-FGE-HA and 4 h post-transfection, the medium was replenished with medium containing 20 ng/mL doxycycline and various concentrations of decanoyl-RVKR-CMK or only DMSO as a carrier control. The cells and medium were collected after 16 h of induction/treatment for further analysis. The samples were boiled in Laemmli buffer and analyzed by SDS-PAGE and western blotting with FGE antiserum.
In order to verify that the N-terminus of FGE containing the RYSR motif is subject to processing by furin or furin-like convertases, the inventors studied the secretion profile of FGE in cells in the presence of decanoyl-RVKR-ChloroMethylKetone (CMK), an inhibitor for PCs (FIG. 12A). […]

[2] = biological target: T1, recombinant furin (rFurin) (Homo sapiens, UniProt P09958); assay: In vitro furin cleavage assay; assay type: biochemical; conditions: 25 μM inhibitor, HT1080 cell lysate
T1 construct: purchased NEB
Method: as §1
In mammals, the proproteinconvertase family comprises nine enzymes that differ in their substrate specificity and tissue-specific expression and/or subcellular localization (17). Furin is the best characterized mammalian PC with a ubiquitous tissue distribution and it is the major convertase in the secretory pathway. To analyze the role of furin in the processing of FGE the inventors expressed FGE in cells that are deficient for furin. […] When cell homogenate and medium from CHO-FD11 cells stably expressing FGE-His were treated with commercially available recombinant furin (rFurin), almost half the amount of FGE was processed, as observed for both cells and medium (FIG. 12D). Using this in vitro furin cleavage assay, the inventors also examined whether endogenous intracellular FGE is susceptible to furin processing. Indeed, rFurin readily converted almost 90% of endogenous fl-FGE from untransfected HT1080 cells to the truncated form (FIG. 12E).
Although FGE is an ER resident protein, it lacks a canonical ER-retention motif. […] In this study, using the in vitro furin cleavage assay, the inventors assessed furin-mediated processing of the FGE-ERp44 covalent complex (FIG. 8). Homogenates, pre-treated with NEM (to prevent post-lysis disulfide shuffling), from HT1080 cells expressing either FGE alone or FGE plus myc-ERp44 together from a bi-directional promoter were incubated with rFurin and analyzed by SDS-PAGE under non-reducing conditions. Upon overexpression, intracellular FGE via its N-terminal cysteines (C50 and C52) forms covalently cross-bridged homodimers (FIG. 15, lane 1 and 2) and, additionally, FGE-ERp44 heterodimers when co-expressed with ERp44 (FIG. 15, lane 4 and 6) as previously observed (13). Removal of the N-terminus by furin cleavage should lead to a disappearance of the homo-/hetero-dimeric FGE forms, which serves as an indicator for accessibility of the furin cleavage motif in FGE.

T1 sequence (P09958 108-794): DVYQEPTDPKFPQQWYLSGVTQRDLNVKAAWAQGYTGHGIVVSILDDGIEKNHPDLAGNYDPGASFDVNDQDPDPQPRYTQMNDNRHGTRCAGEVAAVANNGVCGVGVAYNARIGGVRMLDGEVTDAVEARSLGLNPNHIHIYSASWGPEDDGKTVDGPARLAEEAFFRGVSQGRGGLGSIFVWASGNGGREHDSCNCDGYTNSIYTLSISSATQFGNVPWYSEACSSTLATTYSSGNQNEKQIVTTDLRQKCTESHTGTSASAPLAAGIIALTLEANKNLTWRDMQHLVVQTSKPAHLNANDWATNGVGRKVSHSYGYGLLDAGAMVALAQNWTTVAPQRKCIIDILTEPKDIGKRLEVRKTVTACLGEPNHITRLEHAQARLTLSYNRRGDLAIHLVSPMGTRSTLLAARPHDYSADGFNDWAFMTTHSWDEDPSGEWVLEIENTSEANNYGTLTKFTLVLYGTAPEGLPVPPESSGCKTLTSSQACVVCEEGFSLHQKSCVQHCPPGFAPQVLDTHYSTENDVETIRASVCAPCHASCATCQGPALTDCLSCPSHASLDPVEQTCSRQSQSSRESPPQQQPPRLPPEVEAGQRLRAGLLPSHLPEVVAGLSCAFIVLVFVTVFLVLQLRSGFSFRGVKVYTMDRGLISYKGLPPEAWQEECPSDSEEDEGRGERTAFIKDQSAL

- inhibition of furin-mediated processing of FGE [2]: completely abrogated
Substance: decanoyl-RVKR-ChloroMethylKetone (Decanoyl-RVKR-CH2Cl) [RVKR-CMK, reference compound]
- amount of the truncated form of FGE in the secretions [1]: decreased by the inhibitor in a concentration dependent manner
